Data reported in paper PMC8284666, “Biochemical characterization of protease activity of Nsp3 from SARS-CoV-2 and its inhibition by nanobodies” (PLoS ONE, 2021).
Read-outs that look alike come from different tables or passages of the source.

Legend:
PLpro from SARS-CoV-2 = PLpro from SARS-CoV-2 (Severe acute respiratory syndrome coronavirus 2, UniProt P0DTC1); assay: biochemical; settings: for inhibition at 10 µM: read-out: percentage inhibition in the HTS
Nsp3^core [1] = target: T1, Nsp3^core (Severe acute respiratory syndrome coronavirus 2, UniProt P0DTC1); assay: biochemical
[2] = tested on: panel of 42 human DUBs and the viral ovarian tumor (vOTU); type: biochemical; settings: tested at 10 and 1 μM; result in words
Nsp3^core [3] = target: T1, Nsp3^core; type: biochemical
PLpro^CoV-1 = settings: read-out: IC50 against PLpro^CoV-1; cited from earlier work
SARS-CoV-2 PLpro = settings: cited from earlier work
[4] = target: SARS-CoV-2 Nsp3 residues 743-1072 (PL-pro), purified, tags removed (SARS-CoV-2, Wuhan-Hu-1 (MN908947.3), UniProt P0DTD1); assay: ITC; settings: both partners purified
[5] = screened in duplicate at 10 μM, hit criterion

For CCN(CC)C(=S)SSC(=S)N(CC)CC [Disulfiram], the IC50 (PLpro from SARS-CoV-2) was 690 nM, the inhibition at 10 µM (PLpro from SARS-CoV-2; [5]) was > 50% and the IC50 (Nsp3^core [1]) was 660 nM. The “selectivity / off-target inhibition in the DUB panel” value (“selectivity / off-target inhibition” below) [2] was “inhibited–at different extents–several other human DUBs”.

In the case of CC(Cc1ccc(O)c(O)c1)C(C)Cc1ccc(O)c(O)c1 (stereo not shown) [Nordihydroguaiaretic acid], the IC50 (PLpro from SARS-CoV-2) is reported as 1060 nM, the inhibition at 10 µM (PLpro from SARS-CoV-2; [5]) is reported as > 50% and the IC50 (Nsp3^core [1]) is reported as 1620 nM.

Work on Nc1nc2nc[nH]c2c(=S)[nH]1 [Thioguanine] yielded an IC50 (PLpro from SARS-CoV-2) of 4540 nM.

With O=c1sn(-c2cccc3ccccc23)c(=O)n1Cc1ccccc1 [Tideglusib] the IC50 (PLpro from SARS-CoV-2) was 210 nM, the inhibition at 10 µM (PLpro from SARS-CoV-2) was > 50% and the IC50 (Nsp3^core [1]) was 1480 nM. For the same molecule, the “selectivity / off-target inhibition” value [2] was “inhibited–at different extents–several other human DUBs”.

With Auranofin the IC50 (PLpro from SARS-CoV-2; read-out: IC50 against PLpro) was ~1000 nM, the IC50 (Nsp3^core [1]) was ~1000 nM and the “selectivity / off-target inhibition” value [2] was “inhibited–at different extents–several other human DUBs”.

In the case of GRL-0617, the “inhibition of viral polypeptide (Nsp1-2 FL) cleavage by Nsp3” value (Nsp3^core [3]) is given as “able to inhibit cleavage of the viral polypeptide”, the IC50 (PLpro^CoV-1) is given as 600 nM and the IC50 (SARS-CoV-2 PLpro) is given as ~2000 nM.

B1: NbSL18, recombinant, purified from bacteria (VHH)
VHH: QVQLQESGGGLVQAGGSLRLSCAASGSIFLPGFMGWYRQAPGKERELVASITPGTTTNYADSVKGRFTISRDNAKNTVYLQMNSLKPEDTAVYYCAAYVFVYRNYWGQGTQVTVSS
Work on B1 yielded a Kd [4] of ~500 nM.
